Laboratory results reported in ChEMBL document CHEMBL5053543, “Macrocyclic BACE1 inhibitors with hydrophobic cross-linked structures: Optimization of ring size and ring structure” (Bioorg Med Chem, 2021).

Target: T1, Beta-secretase 1 (Homo sapiens, UniProt P56817)
Test: Inhibition of recombinant BACE1 (unknown origin) using H-Ile-Lys-Thr-Glu-Glu-Ile-Ser-Glu-Val-Asn-Leu-Asp-Ala-Glu-Phe-Arg-His-Asp-Ser-Gly-NH2 peptide as substrate measured after 90 mins by analytical HPLC analysis

T1 sequence (P56817 whole entry): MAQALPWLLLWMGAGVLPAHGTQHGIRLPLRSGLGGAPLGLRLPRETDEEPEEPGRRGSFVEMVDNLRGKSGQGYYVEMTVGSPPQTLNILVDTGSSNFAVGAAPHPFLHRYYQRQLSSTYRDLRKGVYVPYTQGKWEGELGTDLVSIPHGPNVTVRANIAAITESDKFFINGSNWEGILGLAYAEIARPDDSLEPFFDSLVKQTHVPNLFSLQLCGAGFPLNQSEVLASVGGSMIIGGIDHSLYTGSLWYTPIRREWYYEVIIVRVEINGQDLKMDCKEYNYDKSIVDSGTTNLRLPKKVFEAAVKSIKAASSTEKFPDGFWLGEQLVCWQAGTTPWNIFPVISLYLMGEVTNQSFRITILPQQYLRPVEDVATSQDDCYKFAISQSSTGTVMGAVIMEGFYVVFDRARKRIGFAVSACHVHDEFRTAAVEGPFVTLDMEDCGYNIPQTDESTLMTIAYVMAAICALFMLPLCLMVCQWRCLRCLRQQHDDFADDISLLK

| Compound | IC50 [µM] |
| --- | --- |
| CCC[C@@H]1NC(=O)[C@@H](NC(=O)[C@@H](N)CCC(=O)O)COC/C=C\CC[C@@H]([C@H](O)CNc2ccc(C)cc2)NC1=O | > 1500 |
| CCC[C@@H]1NC(=O)[C@@H](NC(=O)[C@@H](N)CCC(=O)O)CC/C=C\CC[C@@H]([C@H](O)CNc2ccc(C)cc2)NC1=O | 1410 |
| CCC[C@@H]1NC(=O)[C@@H](NC(=O)[C@@H](N)CCC(=O)O)[C@H](C)OCCCC[C@@H]([C@H](O)CNc2ccc(C)cc2)NC1=O | 135 |
| CCC[C@@H]1NC(=O)[C@@H](NC(=O)[C@@H](N)CCC(=O)O)COC/C=C/CC[C@@H]([C@H](O)CNc2ccc(C)cc2)NC1=O | > 1500 |
| CCC[C@@H]1NC(=O)[C@@H](NC(=O)[C@@H](N)CCC(=O)O)CCCCC[C@@H]([C@H](O)CNc2ccc(C)cc2)NC1=O | 1400 |
| CCC[C@@H]1NC(=O)[C@@H](NC(=O)[C@@H](N)CCC(=O)O)C(C)(C)OC/C=C\C[C@@H]([C@H](O)CNc2ccc(C)cc2)NC1=O | 3.9 |
| CCC[C@@H]1NC(=O)[C@@H](NC(=O)[C@@H](N)CCC(=O)O)CC/C=C/CC[C@@H]([C@H](O)CNc2ccc(C)cc2)NC1=O | 380 |
| CCC[C@@H]1NC(=O)[C@@H](NC(=O)[C@@H](N)CCC(=O)O)[C@H](C)OC/C=C/C[C@@H]([C@H](O)CNc2ccc(C)cc2)NC1=O | 1000 |
| CCC[C@@H]1NC(=O)[C@@H](NC(=O)[C@@H](N)CCC(=O)O)C(C)(C)OCCCC[C@@H]([C@H](O)CNc2ccc(CC(=O)O)cc2)NC1=O | 1.6 |
| CCC[C@@H]1NC(=O)[C@@H](NC(=O)[C@@H](N)CCC(=O)O)C(C)(C)OC/C=C\C[C@@H]([C@H](O)CNc2ccc(CC(=O)O)cc2)NC1=O | 1.2 |
| CCC[C@@H]1NC(=O)[C@@H](NC(=O)[C@@H](N)CCC(=O)O)[C@@H](C)OCCCC[C@@H]([C@H](O)CNc2ccc(C)cc2)NC1=O | 1000 |

Further lines, results first:

| IC50 [µM] | Compound |
| --- | --- |
| 780 | CCC[C@@H]1NC(=O)[C@@H](NC(=O)[C@@H](N)CCC(=O)O)CCCCCC[C@@H]([C@H](O)CNc2ccc(C)cc2)NC1=O |
| 1050 | CCC[C@@H]1NC(=O)[C@@H](NC(=O)[C@@H](N)CCC(=O)O)C/C=C\CC[C@@H]([C@H](O)CNc2ccc(C)cc2)NC1=O |
| > 1500 | CCC[C@@H]1NC(=O)[C@@H](NC(=O)[C@@H](N)CCC(=O)O)C/C=C/CC[C@@H]([C@H](O)CNc2ccc(C)cc2)NC1=O |
| 6.1 | CCC[C@@H]1NC(=O)[C@@H](NC(=O)[C@@H](N)CCC(=O)O)C(C)(C)OCCCC[C@@H]([C@H](O)CNc2ccc(C)cc2)NC1=O |
| 1420 | CCC[C@@H]1NC(=O)[C@@H](NC(=O)[C@@H](N)CCC(=O)O)[C@@H](C)OC/C=C/C[C@@H]([C@H](O)CNc2ccc(C)cc2)NC1=O |
| > 1500 | CCC[C@@H]1NC(=O)[C@@H](NC(=O)[C@@H](N)CCC(=O)O)COCCCCC[C@@H]([C@H](O)CNc2ccc(C)cc2)NC1=O |
| 11.7 | CCC[C@@H]1NC(=O)[C@@H](NC(=O)[C@@H](N)CCC(=O)O)[C@H](C)OC/C=C\C[C@@H]([C@H](O)CNc2ccc(C)cc2)NC1=O |
| 6.1 | CCC[C@H](NC(=O)[C@@H](NC(=O)[C@@H](N)CCC(=O)O)[C@@H](C)CC)C(=O)N[C@@H](CC(C)C)[C@H](O)CNc1ccc(C)cc1 |
| 117 | CCC[C@@H]1NC(=O)[C@@H](NC(=O)[C@@H](N)CCC(=O)O)[C@@H](C)OC/C=C\C[C@@H]([C@H](O)CNc2ccc(C)cc2)NC1=O |

Target: T1, Beta-secretase 1
Test: Inhibition of recombinant BACE1 (unknown origin) at 1500 uM using H-Ile-Lys-Thr-Glu-Glu-Ile-Ser-Glu-Val-Asn-Leu-Asp-Ala-Glu-Phe-Arg-His-Asp-Ser-Gly-NH2 peptide as substrate measured after 90 mins by analytical HPLC analysis relative to control

| Compound | inhibition [%] |
| --- | --- |
| CCC[C@@H]1NC(=O)[C@@H](NC(=O)[C@@H](N)CCC(=O)O)COC/C=C\CC[C@@H]([C@H](O)CNc2ccc(C)cc2)NC1=O | 20 |
| CCC[C@@H]1NC(=O)[C@@H](NC(=O)[C@@H](N)CCC(=O)O)COC/C=C/CC[C@@H]([C@H](O)CNc2ccc(C)cc2)NC1=O | 20 |

Continued, values first:

| inhibition [%] | Compound |
| --- | --- |
| 20 | CCC[C@@H]1NC(=O)[C@@H](NC(=O)[C@@H](N)CCC(=O)O)C/C=C/CC[C@@H]([C@H](O)CNc2ccc(C)cc2)NC1=O |
| 20 | CCC[C@@H]1NC(=O)[C@@H](NC(=O)[C@@H](N)CCC(=O)O)COCCCCC[C@@H]([C@H](O)CNc2ccc(C)cc2)NC1=O |
